Measured values from patent publication US12428415B2, “Matriptase 2 inhibitors and uses thereof” (Disc Medicine, Inc., priority 2018, dated 2025).

What follows are compounds tested against T1, Human Recombinant Matriptase 2 (Homo sapiens, UniProt Q8IU80) (assay: Matriptase 2 fluorescence based inhibition assay, Method A (100 mM TRIS pH 9, 1 mg/mL BSA)). Conditions: at 1 uM; Assay Used = A; read-out: Mar-2 % inhibition at 1 uM.
T1 construct: purchased Enzo Life Sciences (an in-house preparation was also used) ALX-201-752-1
T1 sequence (Q8IU80 1-811): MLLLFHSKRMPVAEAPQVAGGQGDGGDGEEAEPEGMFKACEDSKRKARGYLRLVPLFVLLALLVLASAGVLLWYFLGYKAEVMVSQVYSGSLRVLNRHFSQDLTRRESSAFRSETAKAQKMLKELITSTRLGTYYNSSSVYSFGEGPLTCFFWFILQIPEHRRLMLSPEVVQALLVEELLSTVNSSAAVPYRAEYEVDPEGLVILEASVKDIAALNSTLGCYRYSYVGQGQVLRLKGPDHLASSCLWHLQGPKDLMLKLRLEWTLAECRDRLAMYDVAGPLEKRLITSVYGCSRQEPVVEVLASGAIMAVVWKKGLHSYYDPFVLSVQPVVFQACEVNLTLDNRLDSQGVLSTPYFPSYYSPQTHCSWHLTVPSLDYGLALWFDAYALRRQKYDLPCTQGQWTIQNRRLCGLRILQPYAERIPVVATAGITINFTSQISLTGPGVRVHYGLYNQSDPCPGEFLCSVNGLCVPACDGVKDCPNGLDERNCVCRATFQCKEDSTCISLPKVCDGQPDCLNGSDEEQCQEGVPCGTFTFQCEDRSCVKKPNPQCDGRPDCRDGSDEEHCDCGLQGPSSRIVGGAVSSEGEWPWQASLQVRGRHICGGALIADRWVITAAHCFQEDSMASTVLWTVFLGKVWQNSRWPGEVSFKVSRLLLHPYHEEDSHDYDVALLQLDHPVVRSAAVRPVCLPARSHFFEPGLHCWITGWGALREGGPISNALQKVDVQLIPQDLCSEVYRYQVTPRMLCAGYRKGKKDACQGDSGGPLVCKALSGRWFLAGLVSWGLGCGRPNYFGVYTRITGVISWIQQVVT
Format: biochemical
How it was run: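 At 25° C in 100 mM TRIS pH 9 with 1 mg/mL BSA and 1% DMSO, compounds were preincubated 30 min with 7 nM commercial or 15 nM in-house protein before adding 100 μM Boc-Gln-Ala-Arg-7-amido-4-methyl coumarin. Fluorescence at 360/480 nm after 60 min; single points at 1 and 10 μM, IC50 by variable-slope nonlinear regression.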

inhibition at 1 µM	Compound
0 to 25%	N=C(N)c1ccc2cc(C(=O)N3CCC(F)(F)CC3)n(Cc3ccc(OC(F)(F)F)cc3)c2c1 [Compound I-290]
0 to 25%	N=C(N)c1ccc2cc(C(=O)N3CCC(CF)CC3)n(Cc3ccc(OC(F)(F)F)cc3)c2c1 [Compound I-291]
0 to 25%	CC(C)c1ccc(Cn2c(C(=O)N3CC[C@H](F)C3)cc3ccc(C(=N)N)cc32)cc1 [Compound I-293]
0 to 25%	CC(C)c1ccc(Cn2c(C(=O)N3CCC(F)(F)C3)cc3ccc(C(=N)N)cc32)cc1 [Compound I-294]
0 to 25%	CC(C)c1ccc(Cn2c(C(=O)N3CCC(F)CC3)cc3ccc(C(=N)N)cc32)cc1 [Compound I-295]
0 to 25%	CC(C)c1ccc(Cn2c(C(=O)N3CCC(F)(F)CC3)cc3ccc(C(=N)N)cc32)cc1 [Compound I-296]
0 to 25%	CC(C)c1ccc(Cn2c(C(=O)N3CCC(CF)CC3)cc3ccc(C(=N)N)cc32)cc1 [Compound I-297]
25 to 50%	CC(C)(C)c1ccc(Cn2c(C(=O)N3CC[C@H](F)C3)cc3ccc(C(=N)N)cc32)cc1 [Compound I-298]
25 to 50%	N=C(N)c1ccc2cc(C(=O)N3CCC(CCN)CC3)n(CCc3ccccc3)c2c1 [Compound I-299]
25 to 50%	N=C(N)c1ccc2cc(C(=O)N3CC[C@@H](N)C3)n(CCc3ccccc3)c2c1 [Compound I-300]
25 to 50%	N=C(N)c1ccc2cc(C(=O)N3CCC(CCN)CC3)n(CCc3ccc(F)cc3)c2c1 [Compound I-301]
25 to 50%	COc1ccc(CCn2c(C(=O)N3CCC(CCN)CC3)cc3ccc(C(=N)N)cc32)cc1 [Compound I-302]
0 to 25%	N=C(N)c1ccc2cc(C(=O)N3CCC(F)(F)CC3)n(Cc3ccc(-c4ccccc4)cc3)c2c1 [Compound I-306]
0 to 25%	N=C(N)c1ccc2cc(C(=O)N3CCCC(F)(F)C3)n(Cc3ccc(-c4ccccc4)cc3)c2c1 [Compound I-307]
0 to 25%	N=C(N)c1ccc2cc(C(=O)N3CCC(CF)CC3)n(Cc3ccc(-c4ccccc4)cc3)c2c1 [Compound I-308]
0 to 25%	N=C(N)c1ccc2cc(C(=O)N3CC[C@H](F)C3)n(Cc3ccc(-c4ccccc4)cc3)c2c1 [Compound I-309]
0 to 25%	N=C(N)c1ccc2cc(C(=O)N3CCC(F)(F)C3)n(Cc3ccc(-c4ccccc4)cc3)c2c1 [Compound I-310]
0 to 25%	N=C(N)c1ccc2cc(C(=O)N3CCc4ccccc4C3)n(Cc3ccc(-c4ccccc4)cc3)c2c1 [Compound I-311]
0 to 25%	N=C(N)c1ccc2cc(C(=O)N3CC[C@@H](F)C3)n(Cc3ccc(Oc4ccccc4)cc3)c2c1 [Compound I-313]
0 to 25%	N=C(N)c1ccc2cc(C(=O)N3CCC(F)(F)C3)n(Cc3ccc(Oc4ccccc4)cc3)c2c1 [Compound I-314]
0 to 25%	N=C(N)c1ccc2cc(C(=O)N3CCCC(F)(F)C3)n(Cc3ccc(Oc4ccccc4)cc3)c2c1 [Compound I-315]
0 to 25%	N=C(N)c1ccc2cc(C(=O)N3CCC(CCN)CC3)n(Cc3ccc(Oc4ccc(F)cc4)cc3)c2c1 [Compound I-316]
25 to 50%	N=C(N)c1ccc2cc(C(=O)N3CCC(CCN)CC3)n(Cc3ccc(Oc4ccc(F)cc4)nc3)c2c1 [Compound I-317]
25 to 50%	N=C(N)c1ccc2cc(C(=O)N3CCC(CCN)CC3)n(Cc3ccc(Oc4cccc(C(F)(F)F)c4)cc3)c2c1 [Compound I-319]
25 to 50%	N=C(N)c1ccc2cc(C(=O)N3CCC(CCN)CC3)n(Cc3cccc(Oc4ccccc4)c3)c2c1 [Compound I-321]

inhibition at 1 µM	Compound
0 to 25%	N=C(N)c1ccc2cc(C(=O)N3CCC(CCCC(N)=O)CC3)n(Cc3ccc(C(F)(F)F)cc3)c2c1 [Compound I-322]
0 to 25%	N=C(N)c1ccc2cc(C(=O)N3CCC(F)C3)n(Cc3cccc(C(N)=O)c3)c2c1 (stereo not shown) [Compound I-323, 3-((6-Carbamimidoyl-2-(3-fluoropyrrolidine-1-carbonyl)-1H-indol-1-yl)methyl)benzamide]
0 to 25%	N=C(N)c1ccc2cc(C(=O)N3CCC(F)(F)C3)n(Cc3cccc(C(N)=O)c3)c2c1 [Compound I-324]
0 to 25%	N=C(N)c1ccc2cc(C(=O)N3CCC[C@@H](CF)C3)n(Cc3cccc(C(N)=O)c3)c2c1 [Compound I-325]
0 to 25%	N=C(N)c1ccc2cc(C(=O)N3CCC(F)CC3)n(Cc3ccc(C(N)=O)cc3)c2c1 [Compound I-326]
0 to 25%	N=C(N)c1ccc2cc(C(=O)N3CCC(F)(F)CC3)n(Cc3ccc(C(N)=O)cc3)c2c1 [Compound I-327]
0 to 25%	N=C(N)c1ccc2cc(C(=O)N3CCCC(F)(F)C3)n(Cc3ccc(C(N)=O)cc3)c2c1 [Compound I-328]
0 to 25%	N=C(N)c1ccc2cc(C(=O)N3CCC(C(F)(F)F)CC3)n(Cc3ccc(C(N)=O)cc3)c2c1 [Compound I-329]
0 to 25%	N=C(N)c1ccc2cc(C(=O)N3CC[C@H](F)C3)n(Cc3ccc(C(N)=O)cc3)c2c1 [Compound I-330]
0 to 25%	N=C(N)c1ccc2cc(C(=O)N3CCC(F)(F)C3)n(Cc3ccc(C(N)=O)cc3)c2c1 [Compound I-331]
0 to 25%	N=C(N)c1ccc2cc(C(=O)N3CCC[C@H](CF)C3)n(Cc3ccc(C(N)=O)cc3)c2c1 [Compound I-332]
0 to 25%	N=C(N)c1ccc2cc(C(=O)N3CC[C@@H](N4CCOCC4)C3)n(Cc3ccc(C(N)=O)cc3)c2c1 [Compound I-333]
0 to 25%	N=C(N)c1ccc2cc(C(=O)N3CCC(CCN)CC3)n(S(=O)(=O)c3ccc4ccccc4c3)c2c1 [Compound I-335]
0 to 25%	N=C(N)c1ccc2cc(C(=O)N3CCC(CCN)CC3)n(S(=O)(=O)Cc3ccccc3)c2c1 [Compound I-336]
0 to 25%	N=C(N)c1ccc2cc(C(=O)N3CCC(CCN)CC3)n(CCS(=O)(=O)c3ccccc3)c2c1 [Compound I-337]
0 to 25%	N=C(N)c1ccc2cc(C(=O)N3CCCC4CCCCC43)n(CCS(=O)(=O)c3ccccc3)c2c1 (stereo not shown) [Compound I-338]
0 to 25%	N=C(N)c1ccc2cc(C(=O)N3CCC4CCCCC4C3)n(CCS(=O)(=O)c3ccccc3)c2c1 (stereo not shown) [Compound I-339]
0 to 25%	CC1CCN(C(=O)c2cc3ccc(C(=N)N)cc3n2CCS(=O)(=O)c2ccccc2)CC1 [Compound I-340]
0 to 25%	N=C(N)c1ccc2cc(C(=O)N3CC[C@@H](F)C3)n(CCS(=O)(=O)c3ccccc3)c2c1 [Compound I-341]
0 to 25%	N=C(N)c1ccc2cc(C(=O)N3CCC(F)(F)C3)n(CCS(=O)(=O)c3ccccc3)c2c1 [Compound I-342]
0 to 25%	N=C(N)c1ccc2cc(C(=O)N3CCC(F)CC3)n(CCS(=O)(=O)c3ccccc3)c2c1 [Compound I-343]
0 to 25%	N=C(N)c1ccc2cc(C(=O)N3CCC(F)(F)CC3)n(CCS(=O)(=O)c3ccccc3)c2c1 [Compound I-344]
25 to 50%	CC(C)CCn1c(C(=O)N2CCC(CCN)CC2)c(N)c2ccc(C(=N)N)cc21 [Compound I-345, 3-Amino-2-(4-(2-aminoethyl)piperidine-1-carbonyl)-1-isopentyl-1H-indole-6-carboximidamide]
0 to 25%	CCOC(=O)c1ccc(Cn2c(C(=O)N3CCC(CCN)CC3)c(N)c3ccc(C(=N)N)cc32)cc1 [Compound I-346]
